In PMC9571063 (Molecules, 2022):

Assays:
MARK4 = biological target: T1, MARK4 (Homo sapiens, UniProt Q96L34); assay: KINOMEscan; assay type: binding; conditions: read-out: Percent Control
T1 construct: purchased Eurofins DiscoverX KINOMEscan (scanMAX 468)

GAK = biological target: T2, GAK (Homo sapiens, UniProt O14976); assay: KINOMEscan; assay type: binding; conditions: read-out: Percent Control
T2 construct: purchased Eurofins DiscoverX KINOMEscan (scanMAX 468)

MEK4 = biological target: T3, MEK4 (Homo sapiens, UniProt P45985); assay: KINOMEscan; assay type: binding; conditions: read-out: Percent Control
T3 construct: purchased Eurofins DiscoverX KINOMEscan (scanMAX 468)

CSNK1G1 = biological target: T4, CSNK1G1 (Homo sapiens, UniProt Q9HCP0); assay: KINOMEscan; assay type: binding; conditions: read-out: Percent Control
T4 construct: purchased Eurofins DiscoverX KINOMEscan (scanMAX 468)

EGFR(E746-A750del) = biological target: T5, EGFR(E746-A750del) (Homo sapiens, UniProt P00533, DEL746-750); assay: KINOMEscan; assay type: binding; conditions: read-out: Percent Control
T5 construct: purchased Eurofins DiscoverX KINOMEscan (scanMAX 468)

AURKA = biological target: T6, AURKA (Homo sapiens, UniProt O14965); assay: KINOMEscan; assay type: binding; conditions: read-out: Percent Control
T6 construct: purchased Eurofins DiscoverX KINOMEscan (scanMAX 468)

INSR = biological target: T7, INSR (Homo sapiens, UniProt P06213); assay: KINOMEscan; assay type: binding; conditions: read-out: Percent Control
T7 construct: purchased Eurofins DiscoverX KINOMEscan (scanMAX 468)

ERK3 = biological target: T8, ERK3 (Homo sapiens, UniProt Q16659); assay: KINOMEscan; assay type: binding; conditions: read-out: Percent Control
T8 construct: purchased Eurofins DiscoverX KINOMEscan (scanMAX 468)

NEK2 = biological target: T9, NEK2 (Homo sapiens, UniProt P51955); assay: KINOMEscan; assay type: binding; conditions: read-out: Percent Control
T9 construct: purchased Eurofins DiscoverX KINOMEscan (scanMAX 468)

SIK = biological target: T10, SIK (Homo sapiens, UniProt P57059); assay: KINOMEscan; assay type: binding; conditions: read-out: Percent Control
T10 construct: purchased Eurofins DiscoverX KINOMEscan (scanMAX 468)

CSNK1G3 = biological target: T11, CSNK1G3 (Homo sapiens, UniProt Q9Y6M4); assay: KINOMEscan; assay type: binding; conditions: read-out: Percent Control
T11 construct: purchased Eurofins DiscoverX KINOMEscan (scanMAX 468)

Human skin fibroblasts = tested on: Human skin fibroblasts; set-up: method as in ref 14 (a number printed in a supplementary file, which may have a reference list of its own: not looked up in the article's list); conditions: DB18[a], footnote not given; read-out: Cytotoxic studies IC50 Fibroblasts; cited from earlier work
STK36 = biological target: T12, STK36 (Homo sapiens, UniProt Q9NRP7); assay: KINOMEscan; assay type: binding; conditions: read-out: Percent Control
T12 construct: purchased Eurofins DiscoverX KINOMEscan (scanMAX 468)

PKAC-beta = biological target: T13, PKAC-beta (Homo sapiens, UniProt P22694); assay: KINOMEscan; assay type: binding; conditions: read-out: Percent Control
T13 construct: purchased Eurofins DiscoverX KINOMEscan (scanMAX 468)

CAMK2D = biological target: T14, CAMK2D (Homo sapiens, UniProt Q13557); assay: KINOMEscan; assay type: binding; conditions: read-out: Percent Control
T14 construct: purchased Eurofins DiscoverX KINOMEscan (scanMAX 468)

[1] = biological target: T15, RSK1(Kin.Dom.2-C-terminal) (Homo sapiens, UniProt Q15418); assay: KINOMEscan; assay type: binding; conditions: read-out: Percent Control
T15 construct: RSK1(Kin.Dom.2-C-terminal); purchased Eurofins DiscoverX KINOMEscan (scanMAX 468)

PIK3CA(E545K) = biological target: T16, PIK3CA(E545K) (Homo sapiens, UniProt P42336, E545K); assay: KINOMEscan; assay type: binding; conditions: read-out: Percent Control
T16 construct: purchased Eurofins DiscoverX KINOMEscan (scanMAX 468)

[2] = biological target: T17, RSK2(Kin.Dom.2-C-terminal) (Homo sapiens, UniProt P51812); assay: KINOMEscan; assay type: binding; conditions: read-out: Percent Control
T17 construct: RSK2(Kin.Dom.2-C-terminal); purchased Eurofins DiscoverX KINOMEscan (scanMAX 468)

EGFR(L861Q) = biological target: T18, EGFR(L861Q) (Homo sapiens, UniProt P00533, L861Q); assay: KINOMEscan; assay type: binding; conditions: read-out: Percent Control
T18 construct: purchased Eurofins DiscoverX KINOMEscan (scanMAX 468)

HCT116 = tested on: HCT116; set-up: method as in ref 14 (a number printed in a supplementary file, which may have a reference list of its own: not looked up in the article's list); conditions: DB18[a], footnote not given; read-out: Cytotoxic studies IC50 HCT116; cited from earlier work
PKMYT1 = biological target: T19, PKMYT1 (Homo sapiens, UniProt Q99640); assay: KINOMEscan; assay type: binding; conditions: read-out: Percent Control
T19 construct: purchased Eurofins DiscoverX KINOMEscan (scanMAX 468)

MLK2 = biological target: T20, MLK2 (Homo sapiens, UniProt Q02779); assay: KINOMEscan; assay type: binding; conditions: read-out: Percent Control
T20 construct: purchased Eurofins DiscoverX KINOMEscan (scanMAX 468)

SGK2 = biological target: T21, SGK2 (Homo sapiens, UniProt Q9HBY8); assay: KINOMEscan; assay type: binding; conditions: read-out: Percent Control
T21 construct: purchased Eurofins DiscoverX KINOMEscan (scanMAX 468)

SLK = biological target: T22, SLK (Homo sapiens, UniProt Q9H2G2); assay: KINOMEscan; assay type: binding; conditions: read-out: Percent Control
T22 construct: purchased Eurofins DiscoverX KINOMEscan (scanMAX 468)

JNK3 = biological target: T23, JNK3 (Homo sapiens, UniProt P53779); assay: KINOMEscan; assay type: binding; conditions: read-out: Percent Control
T23 construct: purchased Eurofins DiscoverX KINOMEscan (scanMAX 468)

CDKL1 = biological target: T24, CDKL1 (Homo sapiens, UniProt Q00532); assay: KINOMEscan; assay type: binding; conditions: read-out: Percent Control
T24 construct: purchased Eurofins DiscoverX KINOMEscan (scanMAX 468)

PIP5K1C = biological target: T25, PIP5K1C (Homo sapiens, UniProt O60331); assay: KINOMEscan; assay type: binding; conditions: read-out: Percent Control
T25 construct: purchased Eurofins DiscoverX KINOMEscan (scanMAX 468)

MAP3K3 = biological target: T26, MAP3K3 (Homo sapiens, UniProt Q99759); assay: KINOMEscan; assay type: binding; conditions: read-out: Percent Control
T26 construct: purchased Eurofins DiscoverX KINOMEscan (scanMAX 468)

NDR1 = biological target: T27, NDR1 (Homo sapiens, UniProt Q15208); assay: KINOMEscan; assay type: binding; conditions: read-out: Percent Control
T27 construct: purchased Eurofins DiscoverX KINOMEscan (scanMAX 468)

PRP4 = biological target: T28, PRP4 (Homo sapiens, UniProt Q13523); assay: KINOMEscan; assay type: binding; conditions: read-out: Percent Control
T28 construct: purchased Eurofins DiscoverX KINOMEscan (scanMAX 468)

PAK4 = biological target: T29, PAK4 (Homo sapiens, UniProt O96013); assay: KINOMEscan; assay type: binding; conditions: read-out: Percent Control
T29 construct: purchased Eurofins DiscoverX KINOMEscan (scanMAX 468)

FGFR1 = biological target: T30, FGFR1 (Homo sapiens, UniProt P11362); assay: KINOMEscan; assay type: binding; conditions: read-out: Percent Control
T30 construct: purchased Eurofins DiscoverX KINOMEscan (scanMAX 468)

MKK7 = biological target: T31, MKK7 (Homo sapiens, UniProt O14733); assay: KINOMEscan; assay type: binding; conditions: read-out: Percent Control
T31 construct: purchased Eurofins DiscoverX KINOMEscan (scanMAX 468)

FLT3(ITD) = assay: KINOMEscan; assay type: binding, human; conditions: 1 μM
MEK5 = biological target: T32, MEK5 (Homo sapiens, UniProt Q13163); assay: KINOMEscan; assay type: binding; conditions: read-out: Percent Control
T32 construct: purchased Eurofins DiscoverX KINOMEscan (scanMAX 468)

FLT3-autoinhibited = biological target: T33, FLT3-autoinhibited (Homo sapiens, UniProt P36888); assay: KINOMEscan; assay type: binding; conditions: read-out: Percent Control
T33 construct: purchased Eurofins DiscoverX KINOMEscan (scanMAX 468)

CHEK1 = biological target: T34, CHEK1 (Homo sapiens, UniProt O14757); assay: KINOMEscan; assay type: binding; conditions: read-out: Percent Control
T34 construct: purchased Eurofins DiscoverX KINOMEscan (scanMAX 468)

MAST1 = biological target: T35, MAST1 (Homo sapiens, UniProt Q9Y2H9); assay: KINOMEscan; assay type: binding; conditions: read-out: Percent Control
T35 construct: purchased Eurofins DiscoverX KINOMEscan (scanMAX 468)

PRKD1 = biological target: T36, PRKD1 (Homo sapiens, UniProt Q15139); assay: KINOMEscan; assay type: binding; conditions: read-out: Percent Control
T36 construct: purchased Eurofins DiscoverX KINOMEscan (scanMAX 468)

STK35 = biological target: T37, STK35 (Homo sapiens, UniProt Q8TDR2); assay: KINOMEscan; assay type: binding; conditions: read-out: Percent Control
T37 construct: purchased Eurofins DiscoverX KINOMEscan (scanMAX 468)

CSNK2A1 = biological target: T38, CSNK2A1 (Homo sapiens, UniProt P68400); assay: KINOMEscan; assay type: binding; conditions: read-out: Percent Control
T38 construct: purchased Eurofins DiscoverX KINOMEscan (scanMAX 468)

T15 sequence (Q15418 392-735 limits assumed): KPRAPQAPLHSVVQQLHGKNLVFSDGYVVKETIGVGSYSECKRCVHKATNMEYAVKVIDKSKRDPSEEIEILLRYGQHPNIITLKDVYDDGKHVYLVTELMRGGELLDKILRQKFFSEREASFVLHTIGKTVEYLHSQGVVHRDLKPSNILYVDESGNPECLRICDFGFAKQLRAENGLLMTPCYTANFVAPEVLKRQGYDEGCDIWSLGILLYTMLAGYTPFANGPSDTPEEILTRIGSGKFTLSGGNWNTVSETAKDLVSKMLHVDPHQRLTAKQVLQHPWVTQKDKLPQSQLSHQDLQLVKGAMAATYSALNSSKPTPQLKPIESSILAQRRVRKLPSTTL
T14 sequence (Q13557 whole entry): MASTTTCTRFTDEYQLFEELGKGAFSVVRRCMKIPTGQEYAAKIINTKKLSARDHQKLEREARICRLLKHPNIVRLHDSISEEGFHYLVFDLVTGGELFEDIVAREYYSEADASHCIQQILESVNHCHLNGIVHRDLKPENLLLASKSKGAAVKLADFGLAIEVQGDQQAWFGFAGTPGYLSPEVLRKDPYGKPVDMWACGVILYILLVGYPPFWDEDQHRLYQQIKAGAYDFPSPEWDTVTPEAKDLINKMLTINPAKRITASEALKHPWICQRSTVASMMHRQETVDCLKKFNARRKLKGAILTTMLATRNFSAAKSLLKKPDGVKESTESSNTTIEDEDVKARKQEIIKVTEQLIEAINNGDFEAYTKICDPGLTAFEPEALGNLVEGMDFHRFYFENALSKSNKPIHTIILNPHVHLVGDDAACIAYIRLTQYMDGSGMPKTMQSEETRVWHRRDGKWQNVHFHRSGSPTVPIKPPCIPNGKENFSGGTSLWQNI
T24 sequence (Q00532 whole entry): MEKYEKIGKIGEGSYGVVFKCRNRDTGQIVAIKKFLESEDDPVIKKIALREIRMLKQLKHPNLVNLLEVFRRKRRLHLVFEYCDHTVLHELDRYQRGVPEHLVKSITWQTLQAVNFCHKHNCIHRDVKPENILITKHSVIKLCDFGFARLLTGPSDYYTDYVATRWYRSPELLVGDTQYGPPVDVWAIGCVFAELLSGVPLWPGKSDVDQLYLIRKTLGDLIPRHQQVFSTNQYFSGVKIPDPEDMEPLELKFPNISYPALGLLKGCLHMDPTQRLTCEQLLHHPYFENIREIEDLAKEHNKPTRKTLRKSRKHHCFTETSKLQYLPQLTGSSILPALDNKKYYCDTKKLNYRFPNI
T25 sequence (O60331 whole entry): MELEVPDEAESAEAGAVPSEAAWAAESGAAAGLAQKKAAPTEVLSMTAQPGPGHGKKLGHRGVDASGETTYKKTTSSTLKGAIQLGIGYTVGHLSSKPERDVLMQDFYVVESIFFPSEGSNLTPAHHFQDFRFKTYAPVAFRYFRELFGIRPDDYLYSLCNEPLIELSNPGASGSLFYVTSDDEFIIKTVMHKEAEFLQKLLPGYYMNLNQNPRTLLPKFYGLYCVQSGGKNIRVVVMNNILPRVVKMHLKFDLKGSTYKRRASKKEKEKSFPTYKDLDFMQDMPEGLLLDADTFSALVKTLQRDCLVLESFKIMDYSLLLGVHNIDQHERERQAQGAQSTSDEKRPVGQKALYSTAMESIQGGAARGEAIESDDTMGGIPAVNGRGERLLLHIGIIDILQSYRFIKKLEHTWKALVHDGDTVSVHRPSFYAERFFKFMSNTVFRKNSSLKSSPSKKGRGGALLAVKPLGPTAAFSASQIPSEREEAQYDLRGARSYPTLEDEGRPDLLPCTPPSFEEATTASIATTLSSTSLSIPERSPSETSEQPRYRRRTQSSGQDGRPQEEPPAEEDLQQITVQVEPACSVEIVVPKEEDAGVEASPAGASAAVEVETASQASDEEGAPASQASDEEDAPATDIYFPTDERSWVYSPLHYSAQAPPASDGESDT
T26 sequence (Q99759 whole entry): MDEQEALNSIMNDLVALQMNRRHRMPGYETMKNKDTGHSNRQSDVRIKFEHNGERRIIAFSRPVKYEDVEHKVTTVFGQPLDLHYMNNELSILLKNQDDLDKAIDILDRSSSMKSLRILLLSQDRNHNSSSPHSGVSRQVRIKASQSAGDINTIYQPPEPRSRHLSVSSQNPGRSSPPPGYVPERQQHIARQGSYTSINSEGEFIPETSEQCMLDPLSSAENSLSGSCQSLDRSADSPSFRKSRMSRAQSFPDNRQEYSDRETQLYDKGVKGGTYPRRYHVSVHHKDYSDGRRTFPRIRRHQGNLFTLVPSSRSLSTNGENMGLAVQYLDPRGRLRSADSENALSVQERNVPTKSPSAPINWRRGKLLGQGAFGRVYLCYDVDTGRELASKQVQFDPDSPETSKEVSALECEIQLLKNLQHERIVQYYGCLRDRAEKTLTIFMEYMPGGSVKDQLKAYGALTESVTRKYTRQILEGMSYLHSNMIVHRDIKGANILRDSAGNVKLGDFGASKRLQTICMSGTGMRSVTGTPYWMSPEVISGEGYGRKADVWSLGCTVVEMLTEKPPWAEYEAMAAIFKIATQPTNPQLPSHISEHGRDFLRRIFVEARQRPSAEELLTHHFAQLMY
T16 sequence (P42336 whole entry E545K): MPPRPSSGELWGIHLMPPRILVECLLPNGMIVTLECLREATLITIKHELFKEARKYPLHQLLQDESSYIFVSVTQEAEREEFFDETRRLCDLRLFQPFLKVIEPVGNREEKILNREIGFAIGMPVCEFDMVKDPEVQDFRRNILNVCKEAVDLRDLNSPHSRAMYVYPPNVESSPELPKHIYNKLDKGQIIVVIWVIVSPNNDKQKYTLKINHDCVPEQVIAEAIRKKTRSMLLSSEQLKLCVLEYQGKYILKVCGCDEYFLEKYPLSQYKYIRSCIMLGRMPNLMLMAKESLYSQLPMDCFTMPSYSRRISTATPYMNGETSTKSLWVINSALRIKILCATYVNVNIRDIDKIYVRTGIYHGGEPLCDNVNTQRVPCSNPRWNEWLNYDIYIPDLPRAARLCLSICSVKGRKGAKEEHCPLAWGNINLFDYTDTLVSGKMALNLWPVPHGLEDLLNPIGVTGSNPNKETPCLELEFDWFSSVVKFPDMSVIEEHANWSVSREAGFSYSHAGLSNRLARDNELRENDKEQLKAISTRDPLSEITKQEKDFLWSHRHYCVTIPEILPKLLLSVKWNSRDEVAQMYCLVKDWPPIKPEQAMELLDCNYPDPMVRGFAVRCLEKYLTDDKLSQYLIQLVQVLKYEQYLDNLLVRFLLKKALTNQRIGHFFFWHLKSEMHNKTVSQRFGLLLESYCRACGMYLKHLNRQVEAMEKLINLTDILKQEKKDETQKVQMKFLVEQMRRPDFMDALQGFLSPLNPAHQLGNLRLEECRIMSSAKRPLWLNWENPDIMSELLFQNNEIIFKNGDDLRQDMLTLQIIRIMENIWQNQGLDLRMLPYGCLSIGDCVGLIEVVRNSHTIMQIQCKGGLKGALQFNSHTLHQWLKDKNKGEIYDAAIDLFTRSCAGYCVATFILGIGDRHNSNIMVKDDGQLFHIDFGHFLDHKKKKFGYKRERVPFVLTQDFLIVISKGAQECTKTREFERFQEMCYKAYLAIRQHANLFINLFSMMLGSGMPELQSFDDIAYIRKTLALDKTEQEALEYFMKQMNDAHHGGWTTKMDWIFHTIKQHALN
T18 sequence (P00533 25-1210 L861Q): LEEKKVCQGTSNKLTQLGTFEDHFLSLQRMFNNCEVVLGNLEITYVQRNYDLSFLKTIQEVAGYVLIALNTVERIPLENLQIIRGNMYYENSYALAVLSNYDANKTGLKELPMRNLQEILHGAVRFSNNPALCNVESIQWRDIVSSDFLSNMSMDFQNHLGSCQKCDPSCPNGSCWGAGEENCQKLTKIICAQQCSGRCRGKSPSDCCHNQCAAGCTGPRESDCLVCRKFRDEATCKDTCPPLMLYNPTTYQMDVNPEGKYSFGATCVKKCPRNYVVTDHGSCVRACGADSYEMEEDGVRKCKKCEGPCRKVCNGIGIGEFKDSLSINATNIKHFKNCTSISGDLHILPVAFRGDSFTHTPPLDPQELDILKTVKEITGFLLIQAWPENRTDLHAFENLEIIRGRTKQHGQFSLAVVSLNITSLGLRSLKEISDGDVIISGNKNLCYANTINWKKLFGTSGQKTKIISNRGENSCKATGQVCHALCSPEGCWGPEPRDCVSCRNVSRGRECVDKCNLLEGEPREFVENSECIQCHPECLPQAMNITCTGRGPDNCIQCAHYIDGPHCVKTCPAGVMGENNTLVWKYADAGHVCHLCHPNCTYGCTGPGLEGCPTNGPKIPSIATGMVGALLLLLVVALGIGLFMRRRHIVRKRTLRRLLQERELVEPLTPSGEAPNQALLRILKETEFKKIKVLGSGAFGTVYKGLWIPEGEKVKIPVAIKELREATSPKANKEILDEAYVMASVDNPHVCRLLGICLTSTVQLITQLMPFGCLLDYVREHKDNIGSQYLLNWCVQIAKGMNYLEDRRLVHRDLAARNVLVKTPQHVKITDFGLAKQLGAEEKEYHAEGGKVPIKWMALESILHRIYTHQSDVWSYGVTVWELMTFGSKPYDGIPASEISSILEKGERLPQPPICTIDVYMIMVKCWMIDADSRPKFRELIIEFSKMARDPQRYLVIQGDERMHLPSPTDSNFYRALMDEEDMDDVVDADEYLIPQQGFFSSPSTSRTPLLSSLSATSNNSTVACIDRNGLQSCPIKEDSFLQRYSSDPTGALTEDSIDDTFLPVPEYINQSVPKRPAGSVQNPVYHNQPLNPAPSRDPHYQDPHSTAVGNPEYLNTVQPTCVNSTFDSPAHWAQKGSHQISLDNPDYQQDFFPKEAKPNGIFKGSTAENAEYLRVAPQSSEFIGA

Cc1ccc(-n2cc(COc3cccc4cnc(Nc5cccc(Cl)c5)nc34)nn2)c([N+](=O)[O-])c1 [DB18]
remaining binding at 1 µM (MARK4): 100%
remaining binding at 1 µM (GAK): 100%
remaining binding at 1 µM (MEK4): 100%
remaining binding at 1 µM (CSNK1G1): 100%
remaining binding at 1 µM (EGFR(E746-A750del)): 82%
remaining binding at 1 µM (AURKA): 100%
remaining binding at 1 µM (INSR): 93%
remaining binding at 1 µM (ERK3): 100%
remaining binding at 1 µM (NEK2): 100%
remaining binding at 1 µM (SIK): 95%
remaining binding at 1 µM (CSNK1G3): 100%
IC50 (Human skin fibroblasts): 21 µM
remaining binding at 1 µM (STK36): 100%
remaining binding at 1 µM (PKAC-beta): 100%
remaining binding at 1 µM (CAMK2D): 100%
remaining binding at 1 µM [1]: 100%
remaining binding at 1 µM (PIK3CA(E545K)): 66%
remaining binding at 1 µM [2]: 100%
remaining binding at 1 µM (EGFR(L861Q)): 99%
IC50 (HCT116): > 25 µM
remaining binding at 1 µM (PKMYT1): 62%
remaining binding at 1 µM (MLK2): 100%
remaining binding at 1 µM (SGK2): 100%
remaining binding at 1 µM (SLK): 100%
remaining binding at 1 µM (JNK3): 95%
remaining binding at 1 µM (CDKL1): 88%
remaining binding at 1 µM (PIP5K1C): 100%
remaining binding at 1 µM (MAP3K3): 99%
remaining binding at 1 µM (NDR1): 89%
remaining binding at 1 µM (PRP4): 100%
remaining binding at 1 µM (PAK4): 100%
remaining binding at 1 µM (FGFR1): 100%
remaining binding at 1 µM (MKK7): 100%
Percent Control (FLT3(ITD)): 62 % Ctrl
remaining binding at 1 µM (MEK5): 95%
remaining binding at 1 µM (FLT3-autoinhibited): 100%
remaining binding at 1 µM (CHEK1): 100%
remaining binding at 1 µM (MAST1): 79%
remaining binding at 1 µM (PRKD1): 100%
remaining binding at 1 µM (STK35): 100%
remaining binding at 1 µM (CSNK2A1): 75%
